The record followed here is patent US5614533A, “Substituted pipecolinic acid derivatives as HIV protease inhibitors” (Bio-Mega/Boehringer Ingelheim Research, Inc., priority 1994, dated 1997).

As usually defined, the IC50 is the point on the concentration scale where inhibition reaches its midpoint. As usually defined, the EC50 is the concentration needed to bring the measured effect to its halfway point.

Structures are written as SMILES.

Assay [1] has as its target T1, HIV protease (Human immunodeficiency virus type 1 group M subtype B, UniProt P04585).
T1 construct: HIV protease was expressed in E. coli; made in house; host or cells: E. coli (plasmid pBRT1 prt+)
Kind of assay: Recombinant HIV Protease HPLC Assay. It is filed as biochemical. The settings on record: Table V; 37°, 30 min, pH 5.5. In a few lines: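 Recombinant protease from E. coli (pBRT1 prt+ construct), purified and diluted 1/38 for use, cleaves the decapeptide substrate VSFNFPQITL-NH2, containing an HIV polyprotein cleavage site. Inhibition of cleavage is monitored by HPLC.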

The test system of assay [2] is HIV (H9/HTLV-IIIB) in C8166 cells. As to the kind of experiment: plaque assay: inhibition of syncytia formation in HIV-infected C8166 cells. Type of assay: cell-based. Particulars: Table V, 72 h, 50% inhibition of syncytia formation. The essentials: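 C8166 cells (5×10^4/well) infected with 50× TCID50 H9/HTLV-IIIB in HEPES-buffered RPMI 1640 (pH 7.2), 10% FCS, with test compound in triplicate; 72 h at 37°, 5% CO2. Syncytia centers counted by phase-contrast microscopy; EC50 from percent inhibition versus serial dilutions by non-linear regression.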

[3] abbreviates: Human immunodeficiency virus 1, IIIB.

Consider `Cc1cc(C)nc(S[C@@H]2CCN(C[C@@H](O)[C@H](Cc3ccccc3)NC(=O)[C@@H](NC(=O)c3ccc4ccccc4n3)C(C)C)[C@H](C(=O)NC(C)(C)C)C2)n1` [Table V, entry 4, N-tert-butyl-1-{2(R)-hydroxy-4-phenyl-3(S)-{{N-(2-quinolylinylcarbonyl)valyl}amino}butyl}-4(R)-{(4,6-dimethyl-2-pyrimidinyl)thio}piperidine-2-carboxamide], for which the IC50 in assay [1] was 2.7 nM. Moreover, in assay [2] (setting [3]), the EC50 was 8 nM.
On to `CC(C)[C@H](NC(=O)c1ccc2ccccc2n1)C(=O)N[C@@H](Cc1ccccc1)[C@H](O)CN1CC[C@@H](Sc2ccncc2)C[C@H]1C(=O)NC(C)(C)C` [Table V, entry 5, N-tert-butyl-1-{2(S)(R)-hydroxy-4-phenyl-3(S)-{{N-(2-quinolylinylcarbonyl)valyl}amino}butyl}-4(R)-(4-pyridinylthio)piperidine-2-carboxamide], for which the IC50 in assay [1] amounted to 1.5 nM. This compound also displayed an EC50 in assay [2] (setting [3]) of 3 nM.
Taken in the same sequence, the figures for `CC(C)[C@H](NC(=O)c1ccc2ccccc2n1)C(=O)N[C@@H](Cc1ccccc1)[C@H](O)CN1CC[C@@H](Sc2ccccn2)C[C@H]1C(=O)NC(C)(C)C` [Table V, entry 6, N-tert-butyl-1-{2(S)(R)-hydroxy-4-phenyl-3(S)-{{N-(2-quinolylinylcarbonyl)valyl}amino}butyl}-4(R)-(2-pyridinylthio)piperidine-2-carboxamide] were 1.9 nM and 4 nM.
Taken in the same sequence, the figures for `CC(C)[C@H](NC(=O)c1ccc2ccccc2n1)C(=O)N[C@@H](Cc1ccccc1)[C@H](O)CN1CC[C@@H](Oc2ccccc2)C[C@H]1C(=O)NC(C)(C)C` [Table V, entry 7, N-tert-butyl-1-{2(S)(R)-hydroxy-4-phenyl-3(S)-{{N-(2-quinolylinylcarbonyl)valyl}amino}butyl}-4(R)-phenoxypiperidine-2-carboxamide] were 3.4 nM and 14 nM.
In the same order, the values of `CC(C)[C@H](NC(=O)c1ccc2ccccc2n1)C(=O)N[C@@H](Cc1ccccc1)[C@H](O)CN1CC[C@@H](SCc2cccnc2)C[C@H]1C(=O)NC(C)(C)C` [Table V, entry 8, N-tert-butyl-1-{2(S)(R)-hydroxy-4-phenyl-3(S)-{{N-(2-quinolylinylcarbonyl)valyl}amino}butyl}-4(R)-{(3-pyridinylmethyl)thio}piperidine-2-carboxamide] are 2.2 nM and 3 nM.
Turning to `CC(C)[C@H](NC(=O)c1ccc2ccccc2n1)C(=O)N[C@@H](Cc1ccccc1)[C@H](O)CN1CC[C@@H](SCc2ccccn2)C[C@H]1C(=O)NC(C)(C)C` [Table V, entry 9, N-tert-butyl-1-{2(S)(R)-hydroxy-4-phenyl-3(S)-{{N-(2-quinolylinylcarbonyl)valyl}amino}butyl}-4(R)-{(2-pyridinylmethyl)thio}piperidine-2-carboxamide], the IC50 in assay [1] is 4.2 nM. The response in assay [2] (setting [3]) was half-maximal at 5 nM (EC50).
Turning to `CC(C)[C@H](NC(=O)c1ccc2ccccc2n1)C(=O)N[C@@H](Cc1ccccc1)[C@H](O)CN1CC[C@@H](Oc2ncccn2)C[C@H]1C(=O)NC(C)(C)C` [Table V, entry 10, N-tert-butyl-1-{2(S)(R)-hydroxy-4-phenyl-3(S)-{{N-(2-quinolylinylcarbonyl)valyl}amino}butyl}-4(R)-(2-pyrimidinyloxy)piperidine-2-carboxamide], in assay [1], the concentration for half-maximal inhibition (IC50) worked out at 3.2 nM. The compound further had an EC50 in assay [2] (setting [3]) of 25 nM.
Take `Cc1cc(C)nc(O[C@@H]2CCN(C[C@@H](O)[C@H](Cc3ccccc3)NC(=O)[C@@H](NC(=O)c3ccc4ccccc4n3)C(C)C)[C@H](C(=O)NC(C)(C)C)C2)n1` [Table V, entry 11, N-tert-butyl-1-{2(S)(R)-hydroxy-4-phenyl-3(S)-{{N-(2-quinolylinylcarbonyl)valyl}amino}butyl}-4(R)-{(4,6-dimethyl-2-pyrimidinyl)oxy}piperidine-2-carboxamide]: in assay [1], the IC50 came out at 4 nM. In addition, the EC50 in assay [2] (setting [3]) was 20 nM.
Turning to `Cc1ccnc(O[C@@H]2CCN(C[C@@H](O)[C@H](Cc3ccccc3)NC(=O)[C@@H](NC(=O)c3ccc4ccccc4n3)C(C)C)[C@H](C(=O)NC(C)(C)C)C2)n1` [Table V, entry 12, N-tert-butyl-1-{2(S)(R)-hydroxy-4-phenyl-3(S)-{{N-(2-quinolylinylcarbonyl)valyl}amino}butyl}-4(R)-{(4-methyl-2-pyrimidinyl)oxy}piperidine-2-carboxamide], the IC50 in assay [1] worked out at 4.5 nM. The EC50 in assay [2] (setting [3]) was determined as 44 nM.
In the same order, the values of `Cc1cc(O[C@@H]2CCN(C[C@@H](O)[C@H](Cc3ccccc3)NC(=O)[C@@H](NC(=O)c3ccc4ccccc4n3)C(C)C)[C@H](C(=O)NC(C)(C)C)C2)nc(C)n1` [Table V, entry 13, N-tert-butyl-1-{2(S)(R)-hydroxy-4-phenyl-3(S)-{{N-(2-quinolylinylcarbonyl)valyl}amino}butyl}-4(R)-{(2,6-dimethyl-4-pyrimidinyl)oxy}piperidine-2-carboxamide] are 3.6 nM and 17 nM.
On to `CC(C)[C@H](NC(=O)c1ccc2ccccc2n1)C(=O)N[C@@H](Cc1ccccc1)C(O)CN1CC[C@@H](S(=O)(=O)c2ccccc2)CC1C(=O)NC(C)(C)C` (stereo partly drawn) [Table V, entry 14, N-tert-butyl-1-{2(S)(R)-hydroxy-4-phenyl-3(S)-{{N-(2-quinolylinylcarbonyl)valyl}amino}butyl}-4(R)-(phenylsulfonyl)piperidine-2-carboxamide], for which the IC50 in assay [1] amounted to 2.9 nM. In addition, the EC50 in assay [2] came out at 23 nM.
Regarding `CC(C)[C@H](NC(=O)c1ccc2ccccc2n1)C(=O)N[C@@H](Cc1ccccc1)[C@H](O)CN1CC[C@@H](Oc2ccc(F)cc2)C[C@H]1C(=O)NC(C)(C)C` [Table V, entry 15, N-tert-butyl-1-{2(S)(R)-hydroxy-4-phenyl-3(S)-{{N-(2-quinolylinylcarbonyl)valyl}amino}butyl}-4(R)-{(4-fluorophenyl)oxy}piperidine-2-carboxamide], the IC50 in assay [1] worked out at 2.6 nM. Also, in assay [2] (setting [3]), the EC50 was 22 nM.
In the same order, the values of `CC(C)[C@H](NC(=O)c1ccc2ccccc2n1)C(=O)N[C@@H](Cc1ccccc1)[C@H](O)CN1CC[C@@H](OCc2ccncc2)C[C@H]1C(=O)NC(C)(C)C` [Table V, entry 16, N-tert-butyl-1-{2(S)(R)-hydroxy-4-phenyl-3(S)-{{N-(2-quinolylinylcarbonyl)valyl}amino}butyl}-4(R)-(4-pyridinylmethoxy)piperidine-2-carboxamide] are 4.2 nM and 22 nM.
Turning to `CC(C)[C@H](NC(=O)c1ccc2ccccc2n1)C(=O)N[C@@H](Cc1ccccc1)[C@H](O)CN1CC[C@@H](S(=O)(=O)Cc2ccccn2)C[C@H]1C(=O)NC(C)(C)C` [Table V, entry 17, N-tert-butyl-1-{2(S)(R)-hydroxy-4-phenyl-3(S)-{{N-(2-quinolylinylcarbonyl)valyl}amino}butyl}-4(R)-{(2-pyridinylmethyl)sulfonyl}piperidine-2-carboxamide], the half-inhibitory concentration (IC50) in assay [1] turned out to be 2.4 nM. Also, the EC50 in assay [2] (setting [3]) amounted to 33 nM.
`CC(C)[C@H](NC(=O)c1ccc2ccccc2n1)C(=O)N[C@@H](Cc1ccccc1)[C@H](O)CN1CC[C@@H](S(=O)(=O)Cc2cccnc2)C[C@H]1C(=O)NC(C)(C)C` [Table V, entry 18, N-tert-butyl-1-{2(S)(R)-hydroxy-4-phenyl-3(S)-{{N-(2-quinolylinylcarbonyl)valyl}amino}butyl}-4(R)-{(3-pyridinylmethyl)sulfonyl}piperidine-2-carboxamide]: the half-inhibitory concentration (IC50) in assay [1] came to 1.8 nM. Besides, the EC50 in assay [2] (setting [3]) was found to be 67 nM.
In the same order, the values of `CC(C)[C@H](NC(=O)c1ccc2ccccc2n1)C(=O)N[C@@H](Cc1ccccc1)[C@H](O)CN1CC[C@@H](S(=O)(=O)Cc2ccncc2)C[C@H]1C(=O)NC(C)(C)C` [Table V, entry 19, N-tert-butyl-1-{2(S)(R)-hydroxy-4-phenyl-3(S)-{{N-(2-quinolylinylcarbonyl)valyl}amino}butyl}-4(R)-{(4-pyridinylmethyl)sulfonyl}piperidine-2-carboxamide] are 4.6 nM and 73 nM.
`CC(C)[C@H](NC(=O)c1ccc2ccccc2n1)C(=O)N[C@@H](Cc1ccccc1)[C@H](O)CN1CC[C@@H](S(=O)(=O)c2ccccn2)C[C@H]1C(=O)NC(C)(C)C` [Table V, entry 20, N-tert-butyl-1-{2(S)(R)-hydroxy-4-phenyl-3(S)-{{N-(2-quinolylinylcarbonyl)valyl}amino}butyl}-4(R)-(2-pyridinylsulfonyl)piperidine-2-carboxamide]: the IC50 in assay [1] was determined as 1.7 nM. In addition, the midpoint of the response in assay [2] (setting [3]), the EC50, lay at 13 nM.
In the same order, the values of `CC(C)[C@H](NC(=O)c1ccc2ccccc2n1)C(=O)N[C@@H](Cc1ccccc1)[C@H](O)CN1CC[C@@H](S(=O)(=O)c2ccncc2)C[C@H]1C(=O)NC(C)(C)C` [Table V, entry 21, N-tert-butyl-1-{2(R)-hydroxy-4-phenyl-3(S)-{{N-(2-quinolylinylcarbonyl)valyl}amino}butyl}-4(R)-(4-pyridinylsulfonyl)piperidine-2(S)-carboxamide] are 1.7 nM and 25 nM.
Taken in the same sequence, the figures for `Cc1cc(S[C@@H]2CCN(C[C@@H](O)[C@H](Cc3ccccc3)NC(=O)[C@@H](NC(=O)c3ccc4ccccc4n3)C(C)C)[C@H](C(=O)NC(C)(C)C)C2)nc(C)n1` [Table V, entry 22, N-tert-butyl-1-{2(R)-hydroxy-4-phenyl-3(S)-{{N-(2-quinolylinylcarbonyl)valyl}amino}butyl}-4(R)-{(2,6-dimethyl-4-pyrimidinyl)thio}piperidine-2(S)-carboxamide] were 2.4 nM and 11 nM.
